From ChEMBL document CHEMBL1150977, “A quantitative analysis of kinase inhibitor selectivity” (Nat Biotechnol, 2008) come the findings set out here.

The structures appear in SMILES notation.

Assay [1] addresses LIM domain kinase 2 (Homo sapiens, UniProt P53671).
The target of assay [2] is Mast/stem cell growth factor receptor Kit (Homo sapiens, UniProt P10721, V559D).
Assay [3] deals with Tyrosine-protein kinase JAK2 (Homo sapiens, UniProt O60674).
For assay [4], the target named is TGF-beta receptor type-2 (Homo sapiens, UniProt P37173).
In assay [5] the target is T1, Tyrosine-protein kinase receptor UFO (Homo sapiens, UniProt P30530).
T1 sequence (P30530 whole entry): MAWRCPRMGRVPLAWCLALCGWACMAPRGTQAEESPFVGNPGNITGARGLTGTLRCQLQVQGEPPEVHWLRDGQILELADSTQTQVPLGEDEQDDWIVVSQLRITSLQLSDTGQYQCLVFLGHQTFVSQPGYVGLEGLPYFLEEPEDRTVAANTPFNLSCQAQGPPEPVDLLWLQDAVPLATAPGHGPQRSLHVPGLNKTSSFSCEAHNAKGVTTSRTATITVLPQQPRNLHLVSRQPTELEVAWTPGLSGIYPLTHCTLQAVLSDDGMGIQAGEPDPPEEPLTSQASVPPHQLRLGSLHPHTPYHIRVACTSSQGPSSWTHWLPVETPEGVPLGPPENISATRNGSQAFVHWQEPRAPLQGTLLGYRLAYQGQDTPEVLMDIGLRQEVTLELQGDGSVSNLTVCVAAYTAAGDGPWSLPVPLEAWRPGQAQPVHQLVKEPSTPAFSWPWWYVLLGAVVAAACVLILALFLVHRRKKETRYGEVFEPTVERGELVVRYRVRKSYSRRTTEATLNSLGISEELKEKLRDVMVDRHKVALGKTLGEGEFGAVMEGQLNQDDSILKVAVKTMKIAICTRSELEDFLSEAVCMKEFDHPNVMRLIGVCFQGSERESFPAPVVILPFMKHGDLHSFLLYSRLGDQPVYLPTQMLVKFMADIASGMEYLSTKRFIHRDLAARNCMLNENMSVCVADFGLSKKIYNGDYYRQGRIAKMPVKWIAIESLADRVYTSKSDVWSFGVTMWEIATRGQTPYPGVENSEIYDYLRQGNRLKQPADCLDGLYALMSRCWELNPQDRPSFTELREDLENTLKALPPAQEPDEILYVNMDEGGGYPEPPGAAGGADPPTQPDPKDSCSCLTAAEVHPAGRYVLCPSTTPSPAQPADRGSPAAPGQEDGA

The target of assay [6] is ALK tyrosine kinase receptor (Homo sapiens, UniProt Q9UM73).
The target in assay [7] is T2, NUAK family SNF1-like kinase 1 (Homo sapiens, UniProt O60285).
T2 sequence (O60285 whole entry): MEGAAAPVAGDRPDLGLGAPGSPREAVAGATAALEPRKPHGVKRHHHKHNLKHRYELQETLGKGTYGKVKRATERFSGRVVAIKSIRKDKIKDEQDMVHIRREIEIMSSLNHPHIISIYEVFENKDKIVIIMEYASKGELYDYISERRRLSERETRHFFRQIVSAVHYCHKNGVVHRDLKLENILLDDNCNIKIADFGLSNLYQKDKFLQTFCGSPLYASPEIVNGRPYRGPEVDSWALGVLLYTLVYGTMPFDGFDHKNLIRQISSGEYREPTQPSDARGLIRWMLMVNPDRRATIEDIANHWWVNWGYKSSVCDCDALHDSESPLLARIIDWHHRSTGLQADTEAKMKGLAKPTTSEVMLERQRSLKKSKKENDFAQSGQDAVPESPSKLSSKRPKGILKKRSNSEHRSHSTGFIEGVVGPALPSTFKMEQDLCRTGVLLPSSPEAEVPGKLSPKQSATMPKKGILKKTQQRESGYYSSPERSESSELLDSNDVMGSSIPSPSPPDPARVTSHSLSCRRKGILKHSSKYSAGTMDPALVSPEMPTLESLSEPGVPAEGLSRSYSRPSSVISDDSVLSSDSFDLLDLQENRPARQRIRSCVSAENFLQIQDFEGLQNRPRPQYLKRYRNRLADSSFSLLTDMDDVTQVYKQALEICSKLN

The target in assay [8] is T3, Tyrosine-protein kinase ITK/TSK (Homo sapiens, UniProt Q08881).
T3 sequence (Q08881 whole entry): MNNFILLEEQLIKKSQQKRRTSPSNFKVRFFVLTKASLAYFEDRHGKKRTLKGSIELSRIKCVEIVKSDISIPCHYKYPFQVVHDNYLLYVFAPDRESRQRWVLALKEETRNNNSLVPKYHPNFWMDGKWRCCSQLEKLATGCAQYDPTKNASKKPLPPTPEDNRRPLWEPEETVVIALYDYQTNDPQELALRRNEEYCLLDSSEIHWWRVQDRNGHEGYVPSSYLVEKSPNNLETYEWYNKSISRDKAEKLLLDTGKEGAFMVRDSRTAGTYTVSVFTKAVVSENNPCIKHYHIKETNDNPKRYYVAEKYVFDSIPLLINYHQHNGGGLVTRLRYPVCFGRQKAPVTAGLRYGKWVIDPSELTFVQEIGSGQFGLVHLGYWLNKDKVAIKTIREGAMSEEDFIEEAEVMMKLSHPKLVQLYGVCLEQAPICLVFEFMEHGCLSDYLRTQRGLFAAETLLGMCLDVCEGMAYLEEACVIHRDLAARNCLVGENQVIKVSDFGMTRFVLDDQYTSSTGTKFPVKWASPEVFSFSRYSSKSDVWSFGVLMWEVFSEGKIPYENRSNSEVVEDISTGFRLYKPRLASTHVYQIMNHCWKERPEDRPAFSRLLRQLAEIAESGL

For assay [9], the target named is Platelet-derived growth factor receptor beta (Homo sapiens, UniProt P09619).
The target in assay [10] is Calcium/calmodulin-dependent protein kinase type 1 (Homo sapiens, UniProt Q14012).
Calcium/calmodulin-dependent protein kinase type 1, sequence (Q14012 whole entry): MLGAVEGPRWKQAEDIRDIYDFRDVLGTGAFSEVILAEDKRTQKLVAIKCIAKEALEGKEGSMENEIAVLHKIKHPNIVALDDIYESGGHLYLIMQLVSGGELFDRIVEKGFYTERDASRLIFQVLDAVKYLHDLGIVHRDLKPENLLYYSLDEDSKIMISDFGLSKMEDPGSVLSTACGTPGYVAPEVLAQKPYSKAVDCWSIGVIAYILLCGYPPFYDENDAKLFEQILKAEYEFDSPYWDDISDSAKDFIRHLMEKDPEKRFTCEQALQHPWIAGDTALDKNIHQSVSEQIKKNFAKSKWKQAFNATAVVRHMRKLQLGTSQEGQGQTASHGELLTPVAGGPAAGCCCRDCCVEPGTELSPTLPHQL

Platelet-derived growth factor receptor beta, sequence (P09619 whole entry): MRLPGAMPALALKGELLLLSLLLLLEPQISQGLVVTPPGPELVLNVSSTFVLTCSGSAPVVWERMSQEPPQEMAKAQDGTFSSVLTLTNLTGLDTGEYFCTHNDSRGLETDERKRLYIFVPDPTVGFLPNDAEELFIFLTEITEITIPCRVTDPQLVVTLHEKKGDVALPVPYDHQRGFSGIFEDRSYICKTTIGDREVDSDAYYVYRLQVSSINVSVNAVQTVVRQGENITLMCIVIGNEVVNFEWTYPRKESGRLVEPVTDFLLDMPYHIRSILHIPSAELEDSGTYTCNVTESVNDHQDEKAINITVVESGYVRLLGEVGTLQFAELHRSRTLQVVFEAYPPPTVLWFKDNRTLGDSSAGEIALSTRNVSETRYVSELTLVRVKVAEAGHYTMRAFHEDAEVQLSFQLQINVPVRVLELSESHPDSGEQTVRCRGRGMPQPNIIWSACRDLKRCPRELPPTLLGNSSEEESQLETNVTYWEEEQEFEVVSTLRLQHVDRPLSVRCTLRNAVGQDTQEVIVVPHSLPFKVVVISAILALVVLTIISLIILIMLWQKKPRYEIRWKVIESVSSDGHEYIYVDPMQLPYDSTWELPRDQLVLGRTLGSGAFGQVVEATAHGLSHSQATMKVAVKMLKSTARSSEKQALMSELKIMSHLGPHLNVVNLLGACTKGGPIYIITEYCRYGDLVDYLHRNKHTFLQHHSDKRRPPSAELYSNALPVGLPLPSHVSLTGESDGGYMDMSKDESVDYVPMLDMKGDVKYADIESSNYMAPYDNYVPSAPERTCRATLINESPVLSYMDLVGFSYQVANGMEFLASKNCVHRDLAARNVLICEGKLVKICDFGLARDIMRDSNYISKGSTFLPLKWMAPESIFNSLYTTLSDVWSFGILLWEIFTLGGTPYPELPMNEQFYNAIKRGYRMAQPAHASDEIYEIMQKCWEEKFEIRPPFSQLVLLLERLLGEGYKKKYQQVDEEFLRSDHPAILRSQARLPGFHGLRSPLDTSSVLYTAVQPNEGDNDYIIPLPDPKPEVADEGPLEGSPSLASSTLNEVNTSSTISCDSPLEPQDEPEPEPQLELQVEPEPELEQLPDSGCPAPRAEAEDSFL
Mast/stem cell growth factor receptor Kit, sequence (P10721 26-976 V559D limits assumed): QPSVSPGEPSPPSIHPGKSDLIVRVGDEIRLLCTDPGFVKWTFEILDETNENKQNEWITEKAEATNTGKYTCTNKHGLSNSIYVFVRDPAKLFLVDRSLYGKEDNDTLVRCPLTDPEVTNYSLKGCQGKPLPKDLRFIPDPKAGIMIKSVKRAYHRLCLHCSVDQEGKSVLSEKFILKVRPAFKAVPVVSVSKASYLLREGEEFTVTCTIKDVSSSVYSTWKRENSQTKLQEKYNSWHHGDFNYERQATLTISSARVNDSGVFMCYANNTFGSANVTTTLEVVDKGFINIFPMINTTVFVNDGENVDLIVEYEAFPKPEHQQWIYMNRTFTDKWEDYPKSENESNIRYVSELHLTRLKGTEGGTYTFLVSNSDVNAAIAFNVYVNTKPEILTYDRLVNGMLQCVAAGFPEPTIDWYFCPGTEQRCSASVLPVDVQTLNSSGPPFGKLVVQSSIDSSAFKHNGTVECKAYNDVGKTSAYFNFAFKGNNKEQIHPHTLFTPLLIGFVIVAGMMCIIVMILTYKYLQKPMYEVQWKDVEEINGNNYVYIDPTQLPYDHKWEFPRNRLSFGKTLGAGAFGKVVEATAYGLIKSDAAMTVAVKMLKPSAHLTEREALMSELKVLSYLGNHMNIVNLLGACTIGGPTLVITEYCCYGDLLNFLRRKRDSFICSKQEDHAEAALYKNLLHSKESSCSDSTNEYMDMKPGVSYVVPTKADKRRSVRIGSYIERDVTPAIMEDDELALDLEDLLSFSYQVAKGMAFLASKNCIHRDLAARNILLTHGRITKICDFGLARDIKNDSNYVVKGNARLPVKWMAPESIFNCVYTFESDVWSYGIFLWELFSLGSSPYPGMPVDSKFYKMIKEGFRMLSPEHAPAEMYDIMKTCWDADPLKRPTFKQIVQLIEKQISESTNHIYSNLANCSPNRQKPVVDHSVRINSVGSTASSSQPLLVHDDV
LIM domain kinase 2, sequence (P53671 whole entry, the tested form may be a part): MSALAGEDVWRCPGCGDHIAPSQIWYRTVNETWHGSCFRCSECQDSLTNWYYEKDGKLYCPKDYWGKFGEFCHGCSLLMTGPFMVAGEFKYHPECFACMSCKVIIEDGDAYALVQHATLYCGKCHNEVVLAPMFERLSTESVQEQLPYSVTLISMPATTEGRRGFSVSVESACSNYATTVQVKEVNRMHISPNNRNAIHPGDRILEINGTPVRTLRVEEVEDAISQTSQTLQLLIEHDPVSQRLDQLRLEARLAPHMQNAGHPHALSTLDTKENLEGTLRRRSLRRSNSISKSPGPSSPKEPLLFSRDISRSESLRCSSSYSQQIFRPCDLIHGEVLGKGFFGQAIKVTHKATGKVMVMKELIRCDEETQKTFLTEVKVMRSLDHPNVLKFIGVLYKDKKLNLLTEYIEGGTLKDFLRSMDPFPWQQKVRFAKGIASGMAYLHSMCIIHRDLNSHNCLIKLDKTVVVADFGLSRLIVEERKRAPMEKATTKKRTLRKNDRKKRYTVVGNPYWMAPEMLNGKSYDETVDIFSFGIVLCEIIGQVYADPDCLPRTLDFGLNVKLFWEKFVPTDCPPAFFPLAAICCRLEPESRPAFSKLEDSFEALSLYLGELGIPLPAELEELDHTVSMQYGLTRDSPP
TGF-beta receptor type-2, sequence (P37173 whole entry): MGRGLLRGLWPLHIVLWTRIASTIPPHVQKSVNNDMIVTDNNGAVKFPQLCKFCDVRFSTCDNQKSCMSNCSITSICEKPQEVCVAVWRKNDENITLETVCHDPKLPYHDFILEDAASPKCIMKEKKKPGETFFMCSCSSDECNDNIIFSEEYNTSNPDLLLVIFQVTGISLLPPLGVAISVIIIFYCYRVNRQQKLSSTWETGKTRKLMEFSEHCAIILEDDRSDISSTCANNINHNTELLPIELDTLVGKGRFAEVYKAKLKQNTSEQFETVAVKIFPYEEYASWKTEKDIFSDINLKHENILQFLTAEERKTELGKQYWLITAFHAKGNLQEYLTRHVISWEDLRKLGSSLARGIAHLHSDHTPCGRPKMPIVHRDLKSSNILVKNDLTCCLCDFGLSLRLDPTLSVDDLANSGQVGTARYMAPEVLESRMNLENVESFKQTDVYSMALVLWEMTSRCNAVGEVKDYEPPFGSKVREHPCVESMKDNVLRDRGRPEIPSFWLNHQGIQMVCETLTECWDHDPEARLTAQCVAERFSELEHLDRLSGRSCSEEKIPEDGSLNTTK
Tyrosine-protein kinase JAK2, sequence (O60674 whole entry): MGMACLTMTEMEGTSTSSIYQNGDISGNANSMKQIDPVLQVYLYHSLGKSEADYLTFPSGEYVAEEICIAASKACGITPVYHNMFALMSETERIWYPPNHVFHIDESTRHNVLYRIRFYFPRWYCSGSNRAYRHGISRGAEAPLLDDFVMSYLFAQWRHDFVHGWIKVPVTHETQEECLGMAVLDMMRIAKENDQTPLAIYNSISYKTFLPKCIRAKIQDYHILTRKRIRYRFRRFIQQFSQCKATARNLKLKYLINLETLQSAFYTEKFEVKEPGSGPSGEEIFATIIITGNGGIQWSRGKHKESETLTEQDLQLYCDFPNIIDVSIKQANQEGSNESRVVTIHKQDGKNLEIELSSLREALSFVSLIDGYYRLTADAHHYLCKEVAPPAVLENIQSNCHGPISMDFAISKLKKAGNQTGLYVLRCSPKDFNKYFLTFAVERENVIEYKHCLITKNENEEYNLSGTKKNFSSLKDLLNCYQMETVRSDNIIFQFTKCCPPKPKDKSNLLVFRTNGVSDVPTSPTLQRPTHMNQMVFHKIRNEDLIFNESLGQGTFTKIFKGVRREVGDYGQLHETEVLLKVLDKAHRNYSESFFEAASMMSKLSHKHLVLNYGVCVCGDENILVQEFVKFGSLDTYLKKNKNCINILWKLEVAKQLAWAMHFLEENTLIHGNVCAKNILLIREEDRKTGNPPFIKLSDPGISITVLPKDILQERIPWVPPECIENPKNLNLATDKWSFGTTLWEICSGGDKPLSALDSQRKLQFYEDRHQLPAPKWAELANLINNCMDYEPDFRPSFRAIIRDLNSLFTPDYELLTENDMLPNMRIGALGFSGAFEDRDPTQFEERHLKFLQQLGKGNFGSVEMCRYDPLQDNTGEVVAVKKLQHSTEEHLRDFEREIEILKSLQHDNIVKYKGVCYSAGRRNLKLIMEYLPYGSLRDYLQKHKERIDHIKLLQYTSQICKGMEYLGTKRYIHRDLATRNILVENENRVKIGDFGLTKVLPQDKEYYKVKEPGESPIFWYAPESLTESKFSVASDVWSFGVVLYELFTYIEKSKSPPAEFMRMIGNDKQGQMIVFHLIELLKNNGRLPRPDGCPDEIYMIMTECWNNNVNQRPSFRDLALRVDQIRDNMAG

For orientation: Kd means the concentration at which binding is half-saturated. Take `CCN1CCN(Cc2ccc(NC(=O)Nc3ccc(Oc4cc(NC)ncn4)cc3)cc2C(F)(F)F)CC1` [AST-487]: the dissociation constant (Kd) in assay [1] is greater than 10 µM.
With `COCC(=O)NC/C=C/c1ccc2ncnc(Nc3ccc(Oc4ccc(C)nc4)c(C)c3)c2c1` [CP-724714], the Kd in [2], in [3], in [4], in assay [5], in assay [6] and in assay [7] was greater than 10 µM throughout. Further, the Kd in assay [8], in assay [1] and in assay [9] was greater than 10 µM each time.
Take `Nc1nc(Nc2ccc(S(N)(=O)=O)cc2)nn1C(=O)c1c(F)cccc1F` [JNJ-7706621]: the equilibrium dissociation constant (Kd) in [4], in assay [10] and in assay [8] was greater than 10 µM each time.
With `CCOc1cc2ncc(C#N)c(Nc3ccc(F)c(Cl)c3)c2cc1NC(=O)/C=C/CN(C)C` [PELITINIB], the Kd in assay [2] is greater than 10 µM; in assay [3], greater than 10 µM; in assay [4] it was greater than 10 µM; in [5] it was 0.92 µM; in [6] it was 7.1 µM; in assay [7] it was greater than 10 µM. The dissociation constant (Kd) in assay [10], in assay [1] and in assay [9] was greater than 10 µM each time.
`Oc1ccc(-c2nc(-c3ccncc3)c(-c3ccc(F)cc3)[nH]2)cc1` [SB-202190]: the Kd in assay [2], in [3], in assay [4], in assay [5], in assay [6] and in assay [7] was greater than 10 µM each time. For the same molecule, the Kd in [10], in [8], in [1] and in [9] was greater than 10 µM throughout.
As for `NC(=O)c1ccc(-c2nc(-c3ccc4c(c3)OCO4)c(-c3ccccn3)[nH]2)cc1` [SB-431542], the Kd in assay [2], in [3], in assay [5], in assay [6], in assay [7] and in assay [10] was greater than 10 µM each time. The Kd in assay [8], in assay [1] and in assay [9] was greater than 10 µM each time.
